One data set has as its system RLMs. The data set is described as follows: Enzyme kinetics of toddalolactone metabolism in rat liver microsomes (oxidative metabolism and glucuronidation). It is filed as in vitro ADME. The conditions noted are these: RLMs; for V max: toddalolactone 1–200 μM. How it is done: (§1) The CYP reaction system (200 μL) consisted of 0.1 M potassium phosphate buffer (pH 7.4), an NADPH-generating system (1 mM NADPH, 10 mM G-6-P, 1 unit/mL G-6-PD, 4 mM MgCl2), and liver microsomes or recombinant human microsomes (supersomes). Each of the in vitro enzymatic assays using liver microsomes was linear with respect to incubation time and amount of protein. After a pre-incubation at 37 °C for 3 min, the reactions were initiated by adding NADP^+. After incubating for 60 min, the reactions were quenched by adding 200 μL of ice-cold acetonitrile. Samples were centrifuged at 18,000 g for 15 min at 4 °C and 10 μL of supernatant was analyzed using an HPLC system. NADPH or CYP enzyme sources were not used in the control group to ensure that the metabolic reactions were CYP- and NADPH-dependent. All incubation assays were completed in triplicate. The data are presented as mean ± standard deviation (SD).
(§2) In the UGT reaction system, liver microsomes were incubated in 200 μL of the reaction system containing 4 mM UDPGA, 5 mM MgCl2, 20 µg/mL alamethicin, and 50 mM Tris-HCl buffer (pH 7.4). After pre-incubation at 37 °C for 3 min, UDPGA was added to the mixture to initiate the reactions. The mixtures were incubated at 37 °C for 60 min, followed by the addition of 200 μL of cold methanol to terminate the reactions. After centrifugation at 18,000 g for 15 min, 10 μL of the supernatant was analyzed by HPLC.
(§3) The enzyme kinetics of toddalolactone in oxidative metabolism and glucuronidation were determined by incubating liver microsomes (0.2 mg/mL) or CYPs (15 nM) with different concentrations of toddalolactone (1–200 μM). The kinetic parameters including Km and Vmax were obtained by fitting the experimental data to the Michaelis–Menten equation (Equation (1)), biphasic kinetics equation (Equation (2)), or substrate inhibition equation (Equation (3)) (He et al. [2018]), and the results were graphically represented on Eadie–Hofstee plots. The in vitro intrinsic clearance (CLint) was calculated based on the Vmax/Km ratio. Metabolites were quantified using the standard curve for toddalolactone because of the absence of metabolite standards. All incubations were repeated in three independent experiments. Kinetic constants were expressed with mean ± SD: (1) V=Vmax×[S]/Km+[S] (2) V=Vmax1×[S]/Ks1+[S]+Vmax2×[S]/Ks2+[S] (3) V=Vmax×[S]/Ks+[S]+[S]^2/Ksi where v is the rate of reaction, Vmax is the estimated maximum velocity, [S] is the substrate concentration, and Km is the affinity constant of the substrate; Vmax1 and Vmax2 represent the estimated maximum velocity of the two metabolic phases; Ks1 and Ks2 represent the affinity constants for two metabolic phases; Ks and Ksi are the substrate affinity and inhibition constants, respectively.
(§4) The enzyme kinetics in oxidative metabolism and glucuronidation of toddalolactone were studied, and preliminary experiments were performed to ensure that metabolites were formed in the linear range of both reaction time and microsomal protein concentration. The metabolite with the largest peak area was used to calculate the kinetic parameter values (Km, Vmax and CLint). Based on the results of toddalolactone metabolism in different species, the kinetic parameter values in RLMs, DLMs, MLMs, HLMs, RAMs, MIMs, PLMs, CYP1A1 and CYP3A5 were calculated using P4, P4, P4, P4, P2, P2, P4, P4 and P4 data in oxidative metabolism, respectively. In the glucuronidation reaction, the kinetic parameter values in RLMs, MLMs, HLMs, RAMs and PLMs were calculated using P5, P6, P6, P6 and P5 data, respectively.
For orientation: Liver microsomes are vesicles of endoplasmic reticulum, rich in cytochrome P450 enzymes.

Assay in data set [1]: as above
The conditions noted are these: rat, liver microsomes, pH 7.4, RLMs, Vmax/Km. It is filed as in vitro ADME. As for the experimental part:
as §1, §2, §3, §4

Another data set deals with DLMs. Nature of the data set: Prediction of in vivo hepatic clearance in dogs from DLM kinetics. It is filed as in vitro ADME, dog. As for the experimental part: The in vivo hepatic clearances in oxidative metabolism and glucuronidation of toddalolactone were calculated using Equations (4)–(6) (Li et al. [2008]): (4) CLint in vitro=∑i=1nVmax(Mi)/Km(Mi) (5) CLint in vivo=CLint in vitro⋅SF (6) CLH=QH⋅fu⋅CLint in vivo/QH+fu⋅CLint in vivo where SF is the milligrams of microsomal protein per gram of liver multiplied by the grams of liver weight; CLH is hepatic clearance; fu is the unbound fraction in the blood (the value of fu was set to 1 due to the absence of available data for toddalolactone); QH is the blood flow in the liver; and Mi is the metabolite of toddalolacone. The physiological parameters to calculate intrinsic clearance were as follows. The liver weight of dogs, rats and humans were 32, 40 and 25.7 g/kg body weight, respectively; the content of microsomal protein was 77.9, 44.8 and 48.8 mg/g of liver; and the blood flow in the liver was 30.9, 55.2 and 20.7 mL/(min ⋅ kg), respectively (Naritomi et al. [2001]).

The test system of a further data set is MIMs. Nature of the data set: Enzyme kinetics of toddalolactone metabolism in mouse liver microsomes (oxidative metabolism). It is filed as in vitro ADME. The conditions noted are these: MOMs (mouse liver microsomes), P450-catalyzed oxidation, P2 formation. As for the experimental part: as §1
(§5) The enzyme kinetics of toddalolactone in oxidative metabolism and glucuronidation were determined by incubating liver microsomes (0.2 mg/mL) or CYPs (15 nM) with different concentrations of toddalolactone (1–200 μM). […] The in vitro intrinsic clearance (CLint) was calculated based on the Vmax/Km ratio. Metabolites were quantified using the standard curve for toddalolactone because of the absence of metabolite standards. […]
as §4, with “The metabolite with the largest peak area was used to calculate the kinetic parameter values (Km, Vmax and CLint).” left out

Assay in data set [2]: as above
It is filed as in vitro ADME. Particulars: pH 7.4; MOMs (mouse liver microsomes); P450-catalyzed oxidation; P2 formation; Vmax/Km. As for the experimental part: as §1, §5
as §4, with “The metabolite with the largest peak area was used to calculate the kinetic parameter values (Km, Vmax and CLint).” left out

Data set [3] can be described thus: Pharmacokinetics study in rats after intravenous administration. It is filed as in vivo. Particulars: male, Sprague-Dawley, rat, intravenous 10 mg/kg, plasma. How it is done:
Six male Sprague–Dawley rats weighing 200 ± 10 g were obtained from the Laboratory Animal Center of Jinzhou Medical University. Approval of the study protocols was obtained from the Institutional Animal Ethics Committee before the commencement of the studies. Toddalolactone was administered intravenously into the tail vein at a dose of 10 mg/kg, and 0.5 mL of blood was collected through orbital venous plexus at 0, 0.25, 0.5, 0.75, 1, 2, 4, 6 and 8 h after toddalolactone administration and centrifuged at 2000 g for 5 min at 4 °C to obtain the plasma samples. The plasma (0.1 mL) was mixed with 200 μL acetonitrile, the mixture was vortexed for 30 s and then centrifuged at 20,000 g for 20 min and the supernatant was collected and analyzed by HPLC.
After intravenous administration of toddalolactone, blood samples were collected and the concentration of toddalolactone in plasma was determined. The mean plasma concentrations of toddalolactone versus time profiles are depicted in Figure 13. The pharmacokinetic (PK) parameters such as AUC0–t, t1/2, Tmax and Cmax were calculated by a noncompartmental method using the DAS 3.1 software package (Jiangxi University of Traditional Chinese Medicine, Nanchang, China).

The mark [4] stands for this setting: P450-catalyzed oxidation, P4 formation.
[5] abbreviates: glucuronide metabolism, P5 formation.

These results are taken from paper PMC9367672, “In vitro differences in toddalolactone metabolism in various species and its effect on cytochrome P450 expression” (Pharmaceutical Biology, 2022).

The structures appear in SMILES notation.

The term Tmax denotes the time at which the peak concentration occurs. One may read the AUC(0-t) as the area under the concentration-time curve up to a stated or last time point. Low values mean low exposure, high ones high exposure. As a reminder, the Cmax is the maximum level reached in the sampled fluid or tissue. `COc1cc2oc(=O)ccc2c(OC)c1C[C@@H](O)C(C)(C)O` [toddalolactone]: the K m is recorded as 121.13 ± 31.89 µM in the data set with RLMs (setting [4]), 79.11 ± 22.56 µM in the data set on RLMs (setting [5]) and 146.32 ± 26.62 µM in the data set with MIMs. In addition, the results for the V max in the data set on RLMs (setting [4]), in the data set on RLMs (setting [5]) and in the data set with MIMs (toddalolactone 1–200 μM) were 158.26 ± 20.52 pmol/min/mg protein, 55.89 ± 6.61 pmol/min/mg protein and 235.91 ± 22.75 pmol/min/mg protein, respectively. The results for the microsomal CLint in data set [1] (setting [4]), in data set [1] (setting [5]) and in data set [2] were 1.31 µL/min/mg, 0.69 µL/min/mg and 1.61 µL/min/mg, respectively. In the data set on DLMs (DLMs), the “CLH versus hepatic blood flow (QH)” value is 5.41%. Also, in the data set on DLMs (dogs), the “clearance class according to predicted CLH” value was “low-clearance (low-clearance drugs (<30% liver blood flow))”. Also, the “in vivo hepatic clearance (CLH)” value in the data set with DLMs (dogs, predicted from kinetic parameters of P1–P6, fu set to 1) is 0.47 mL/(min/kg body weight). The Tmax in data set [3] came out at 15 min. The molecule further showed an AUC(0-t) in data set [3] (0–8 h) of 460 ng·h/mL. The maximum concentration (Cmax) in data set [3] (mean of six) worked out at 420 ng/mL. In addition, the half-life in data set [3] (read-out: elimination t1/2 (converted)) is 63 min.
